This experiment has as its system recombinant NL-Rluc virus. Nature of the experiment: Inhibition of HIV replication (NL-RLuc luciferase reporter virus in MT-2 cells). The experiment is classed as cell-based. The note with it: Human immunodeficiency virus 1, MT2, 120 h, read-out: Activity.

From patent US9034882B2, “Inhibitors of human immunodeficiency virus replication” (priority 2012, dated 2015) come the findings set out here.

Each structure is given as a SMILES string.

As to `Cc1nc2cc(-c3cccc(Cc4ccccc4)n3)nn2c(N2CCC(C)(C)CC2)c1[C@H](OC(C)(C)C)C(=O)O` [Example 70, (S)-2-(2-(6-Benzylpyridin-2-yl)-7-(4,4-dimethylpiperidin-1-yl)-5-methylpyrazolo[1,5-a]pyrimidin-6-yl)-2-(tert-butoxy)acetic acid], the EC50 lay within 100 to 1000 nM.
